Experimental data reported in US8871767B2, “2-arylimidazo[1,2-B]pyridazine, 2-phenylimidazo[1,2-A]pyridine, and 2-phenylimidazo[1,2-A]pyrazine derivatives” (Hengrui (USA) Ltd., priority 2010, dated 2014).
Read-outs that look alike come from different tables or passages of the source.

Assays:
[1] = tested on: Hedgehog pathway activation (GLi-luciferase reporter) in Shh Light II reporter cells; assay: Hedgehog pathway activation on Shh Light II reporter cells measured by luciferase activity; type: cell-based
In short: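 Shh Light II reporter cells carrying a hedgehog-responsive GLi-luciferase reporter were stimulated either with 500 nM SAG, a direct Smoothened agonist, or with conditioned media containing human Sonic Hedgehog (hShh). Test compounds were evaluated for blocking this pathway activation, quantified by luciferase activity. Cell viability was monitored in parallel with the Celltiter-Blue® assay.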

[2] = tested on: Hedgehog pathway activation on 10T1/2/Smo#3 cells (C3H10T1/2 cells transfected with human Smoothened receptor); assay: Hedgehog pathway activation on 10T1/2/Smo#3 cells measured by ALP activity; type: cell-based
In short: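 Inhibition of alkaline phosphatase induction, read fluorometrically from 4-methylumbelliferyl phosphate conversion, gave IC50 values; CellTiter-Blue tracked viability in parallel. Cells were the human Smo-transfected 10T1/2/Smo#3 pool, stimulated by 10-20% hShh conditioned medium or the Smo agonist SAG (500 nM).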

[3] = Mus musculus, Shh Light II, SAG activation (500 nM SAG), read-out: Shh Light II luciferase activity (SAG activation)
[4] = Mus musculus, Shh Light II, hShh activation, read-out: Shh (IC50, inhibition of Hedgehog pathway activation)
[5] = Mus musculus, Shh Light II, hShh activation, read-out: Shh Light II luciferase activity (hShh activation)
[6] = Mus musculus, C3H 10T1/2, 10T1/2/Smo#3 cells, hShh activation, ALP activity, read-out: 10T1/2/Smo#3 ALP activity (hShh Activation)
[7] = Mus musculus, C3H 10T1/2, 10T1/2/Smo#3 cells, measured by ALP activity, read-out: ALP (IC50, inhibition of Hedgehog pathway activation)

| SMILES | IC50 [1, 3] | IC50 [1, 4] | IC50 [1, 5] | IC50 [2, 6] | IC50 [2, 7] | IC50 ([1]; hShh activation, read-out: Shh (IC50, inhibition of Hedgehog pathway activation)) | IC50 ([2]; 10T1/2/Smo#3 cells, measured by ALP activity, read-out: ALP (IC50, inhibition of Hedgehog pathway activation)) |
| --- | --- | --- | --- | --- | --- | --- | --- |
| CC(C)(C)C(=O)Nc1cc(-c2cn3nc(N4CCC(N5CCOCC5)CC4)ccc3n2)ccc1C(F)(F)F [Example 369, N-(5-(6-(4-morpholinopiperidin-1-yl)imidazo[1,2-b]pyridazin-2-yl)-2-(trifluoromethyl)phenyl)pivalamide] | 300 to 3000 nM | 713 nM | 300 to 3000 nM | 300 to 3000 nM | 363 nM |  |  |
| Cc1c(-c2ccccc2)nc2ccc(N3CCN(C(=O)CCc4ccccc4)CC3)nn12 [Example 156, 1-(4-(3-methyl-2-phenylimidazo[1,2-b]pyridazin-6-yl)piperazin-1-yl)-3-phenylpropan-1-one] |  | 3430 nM |  |  | 8840 nM |  |  |
| CC(C)(C)NS(=O)(=O)c1cc(-c2cn3nc(-c4cccnc4C(F)(F)F)ccc3n2)ccc1Cl [Example 699, N-tert-butyl-2-chloro-5-(6-(2-(trifluoromethyl)pyridin-3-yl)imidazo[1,2-b]pyridazin-2-yl)benzenesulfonamide] |  | 2300 nM |  |  | > 10000 nM |  |  |
| Cc1ccc(-c2cn3nc(-c4cccc(F)c4C(F)(F)F)ccc3n2)cc1NC(=O)C(C)(C)C [Example 395, N-(5-(6-(3-fluoro-2-(trifluoromethyl)phenyl)imidazo[1,2-b]pyridazin-2-yl)-2-methylphenyl)pivalamide] |  | 15 nM |  |  | 87 nM |  |  |
| Cc1ncccc1-c1ccc2nc(-c3ccc(C(F)(F)F)c(NC(=O)C(C)(C)C)c3)cn2n1 [Example 293, N-(5-(6-(2-methylpyridin-3-yl)imidazo[1,2-b]pyridazin-2-yl)-2-(trifluoromethyl)phenyl)pivalamide] |  | 310 nM |  |  | 221 nM |  |  |
| CC(C)(C)C(=O)Nc1cc(-c2cn3nc(NC4CCCC4)ccc3n2)ccc1C(F)(F)F [Example 301, N-(5-(6-(cyclopentylamino)imidazo[1,2-b]pyridazin-2-yl)-2-(trifluoromethyl)phenyl)pivalamide] |  | 406 nM |  |  | 1060 nM |  |  |
| CCC(CO)Nc1ccc2nc(-c3ccc(C(F)(F)F)c(NC(=O)C(C)(C)C)c3)cn2n1 (stereo not drawn) [Example 303, N-(5-(6-(1-hydroxybutan-2-ylamino)imidazo[1,2-b]pyridazin-2-yl)-2-(trifluoromethyl)phenyl)pivalamide] | 300 to 3000 nM | 994 nM | 300 to 3000 nM | 300 to 3000 nM | 783 nM |  |  |
| CCc1ccc(-c2cn3nc(-c4cccnc4C(F)(F)F)ccc3n2)cc1NC(=O)C1CCCCC1 [Example 687, N-(2-ethyl-5-(6-(2-(trifluoromethyl)pyridin-3-yl)imidazo[1,2-b]pyridazin-2-yl)phenyl)cyclohexanecarboxamide] |  | 463 nM |  |  | 1590 nM |  |  |
| Cc1ccc(-c2cn3nc(-c4cccc(C=CC(=O)O)c4)ccc3n2)cc1NC(=O)C(C)(C)C [compound 554] | 3000 to 30000 nM | 316 nM | < 300 nM | 300 to 3000 nM | 1190 nM |  |  |
| CCOc1ccc2nc(-c3ccc(C(F)(F)F)c(NC(=O)c4ccccc4F)c3)cn2n1 [Example 192, N-(5-(6-ethoxyimidazo[1,2-b]pyridazin-2-yl)-2-(trifluoromethyl)phenyl)-2-fluorobenzamide] |  | 1580 nM |  |  | 4760 nM |  |  |
| Cc1ccc(-c2cn3nc(-c4ccc(C(=O)NO)cc4C(F)(F)F)ccc3n2)cc1NC(=O)C(C)(C)C [Example 437, N-hydroxy-4-(2-(4-methyl-3-pivalamidophenyl)imidazo[1,2-b]pyridazin-6-yl)-3-(trifluoromethyl)benzamide] | < 300 nM | 71 nM | < 300 nM | < 300 nM | 150 nM |  |  |
| CCOc1ccc2nc(-c3ccc(C(F)(F)F)c(NC(=O)C4CC4)c3)cn2n1 [Example 186, N-(5-(6-ethoxyimidazo[1,2-b]pyridazin-2-yl)-2-(trifluoromethyl)phenyl)cyclopropanecarboxamide] |  | > 10000 nM |  |  | 8380 nM |  |  |
| CCOC(=O)Nc1cc(-c2cn3nc(-c4cccnc4C(F)(F)F)ccc3n2)c(F)cc1Cl [Example 657, ethyl 2-chloro-4-fluoro-5-(6-(2-(trifluoromethyl)pyridin-3-yl)imidazo[1,2-b]pyridazin-2-yl)phenylcarbamate] |  | 96 nM |  |  | 251 nM |  |  |
| CC(C)(C)CC(=O)Nc1cc(-c2cn3nc(-c4cccnc4C(F)(F)F)ccc3n2)ccc1Cl [Example 672, N-(2-chloro-5-(6-(2-(trifluoromethyl)pyridin-3-yl)imidazo[1,2-b]pyridazin-2-yl)phenyl)-3,3-dimethylbutanamide] |  | 86 nM |  |  | 565 nM |  |  |
| CNC1CCN(c2ccc3nc(-c4ccc(C)c(NC(=O)C(C)(C)C)c4)cn3n2)C1 (stereo not drawn) [Example 473, N-(2-methyl-5-(6-(3-(methylamino)pyrrolidin-1-yl)imidazo[1,2-b]pyridazin-2-yl)phenyl)pivalamide] |  |  |  |  |  | 77 nM | 93 nM |

More lines, now with the values ahead:

| IC50 [1, 3] | IC50 [1, 4] | IC50 [1, 5] | IC50 [2, 6] | IC50 [2, 7] | IC50 ([1]; hShh activation, read-out: Shh (IC50, inhibition of Hedgehog pathway activation)) | IC50 ([2]; 10T1/2/Smo#3 cells, measured by ALP activity, read-out: ALP (IC50, inhibition of Hedgehog pathway activation)) | SMILES |
| --- | --- | --- | --- | --- | --- | --- | --- |
|  | 283 nM |  |  | 631 nM |  |  | CC(C)OC(=O)Nc1cc(-c2cn3nc(-c4cccnc4C(F)(F)F)ccc3n2)ccc1Cl [Example 668, isopropyl 2-chloro-5-(6-(2-(trifluoromethyl)pyridin-3-yl)imidazo[1,2-b]pyridazin-2-yl)phenylcarbamate] |
|  | 447 nM |  |  | 891 nM |  |  | Cc1ccc(-c2cn3nc(-c4ccc(C(=O)O)cc4Cl)ccc3n2)cc1NC(=O)C(C)(C)C [compound 540] |
| < 300 nM | 2100 nM | 300 to 3000 nM | 300 to 3000 nM | 1270 nM |  |  | Cc1c(-c2ccccc2)nc2ccc(N3CCN(C(=O)Cc4ccccc4)CC3)nn12 [Example 155, 1-(4-(3-methyl-2-phenylimidazo[1,2-b]pyridazin-6-yl)piperazin-1-yl)-2-phenylethanone] |
|  | 45 nM |  |  | 9 nM |  |  | CNC1CCN(c2ccc3nc(-c4ccc(C(F)(F)F)c(NC(=O)C(C)(C)C)c4)cn3n2)C1 (stereo not drawn) [Example 349, N-(5-(6-(3-(methylamino)pyrrolidin-1-yl)imidazo[1,2-b]pyridazin-2-yl)-2-(trifluoromethyl)phenyl)pivalamide] |
|  | 64 nM |  |  | 527 nM |  |  | CC(CC(=O)Nc1cc(-c2cn3nc(-c4cccnc4C(F)(F)F)ccc3n2)ccc1Cl)C(F)(F)F (stereo not drawn) [Example 666, N-(2-chloro-5-(6-(2-(trifluoromethyl)pyridin-3-yl)imidazo[1,2-b]pyridazin-2-yl)phenyl)-4,4,4-trifluoro-3-methylbutanamide] |
| 3000 to 30000 nM | > 10000 nM | 3000 to 30000 nM | 3000 to 30000 nM | 3970 nM |  |  | Fc1ccc(CN2CCN(c3ccc4nc(-c5ccccc5)c(Cl)n4n3)CC2)cc1 [Example 144, 3-chloro-6-(4-(4-fluorobenzyl)piperazin-1-yl)-2-phenylimidazo[1,2-b]pyridazine] |
| 3000 to 30000 nM | > 10000 nM | 3000 to 30000 nM | 3000 to 30000 nM | 9530 nM |  |  | CCOc1ccc2nc(-c3ccc(C(F)(F)F)c(Br)c3)cn2n1 [Example 204, 2-(3-bromo-4-(trifluoromethyl)phenyl)-6-ethoxyimidazo[1,2-b]pyridazine] |
|  | 710 nM |  |  | 423 nM |  |  | CC(C)(C)C(=O)Nc1cc(-c2cn3nc(-c4ccncc4)ccc3n2)ccc1C(F)(F)F [Example 169, N-(5-(6-(pyridin-4-yl)imidazo[1,2-b]pyridazin-2-yl)-2-(trifluoromethyl)phenyl)pivalamide] |
|  | > 10000 nM |  |  | 9020 nM |  |  | COc1ccc2nc(-c3ccc(Cl)c(NC(=O)CC(F)(F)F)c3)cn2n1 [Example 111, N-(2-chloro-5-(6-methoxyimidazo[1,2-b]pyridazin-2-yl)phenyl)-3,3,3-trifluoropropanamide] |
